Source: US20220112237A1, “AMINO ACID COMPOSITION HAVING CO-AMORPHOUS STRUCTURE” (AJINOMOTO CO., INC., priority 2019, published 2022)

Legend:
[1] = Test to confirm the dissolved amount (Tyr concentration of supernatant by HPLC); type: physicochemical; conditions: 130 mg in 100 mL water, pH 6.5-7.5, 25° C., stirred, after 24 hours
Protocol: […] After the powder was dissolved completely, the pH was adjusted using 5 mol/L hydrochloric acid to be within the range of 6.5-7.5. Bottles A-D were immersed in a water bath (“NCG-3300”, manufactured by Tokyo Rikakikai Co., Ltd.) at 25° C., and bottles A and C were stirred by the magnetic stirrer, and bottles B and D were allowed to stand without stirring. After 2 hours, 2 mL was sampled from each bottle, and filtered using a 0.45 μm filter (“Millex”, Merck). The filtered sample was diluted 50 times, and the Tyr concentration of the supernatant was determined using high-performance liquid chromatography (HPLC) (“1100 Series”, manufactured by Agilent).
The above process was conducted again after 24 hours, 48 hours, and 333 hours. In the drawing, ◯, Δ, ● and ▴ represent A (stirred, 138 mg), B (allowed to stand, 138 mg), C (stirred, 220 mg) and D (allowed to stand, 220 mg), respectively. […]
After 5 minutes, 10 minutes, 30 minutes, 1 hour, 2 hours, 24 hours, and 168 hours from the start of stirring, 2 mL was sampled from each sample bottle, and filtered using the 0.45 […] filter (“Millex”, Merck). The filtered sample was diluted 50 times, and the Tyr concentration of the supernatant was determined using the high-performance liquid chromatography (HPLC) (“1100 Series”, manufactured by Agilent).

[2] = Confirmation of formation of amorphous product by powder X-ray diffraction; type: physicochemical; conditions: Cys2 with Arg or Cys2 alone, ball mill as Example 1, 30° C., FIG. 6
Protocol: The solid powder obtained in (1) was measured by the powder X-ray diffraction apparatus (“Empyrean”, manufactured by Malvern Panalytical), and the powder X-ray diffraction patterns of the solid were obtained. In the drawing, line a represents the pattern of the mixture at time zero, line b represents time zero plus 4 hours, and line c represents time zero plus 12 hours. As a result, a well-defined peak characteristic of crystal structure was not found. From this, it was confirmed that the solid obtained in (1) was amorphous.
The solid obtained in (1) was measured by the same powder X-ray diffraction apparatus as Example 1, and the powder X-ray diffraction patterns of the solid are shown in FIG. 4.
The solid obtained in (1) was measured by the same powder X-ray diffraction apparatus as Example 1, and the powder X-ray diffraction patterns were obtained. […]
The solid obtained in (1) was measured by the same powder X-ray diffraction apparatus as Example 1, and the powder X-ray diffraction patterns of the solid are shown in FIG. 7.
The solid obtained in (1) was measured by the same powder X-ray diffraction apparatus as Example 1, and the powder X-ray diffraction patterns of the solid are shown in FIG. 8.
The solid obtained in (1) was measured by the same powder X-ray diffraction apparatus as Example 1, and the powder X-ray diffraction patterns of the solid are shown in FIG. 9. […]

Tyr concentration of the supernatant [1] | Formation of amorphous product after pulverization [2] | SMILES
430 mg/L | – | N[C@@H](Cc1ccc(O)cc1)C(=O)O [Tyr crystal, tyrosine]
– | the crystal property remained | N[C@@H](CSSC[C@H](N)C(=O)O)C(=O)O [compound 7, Cystine]
